This test deals with L1210 leukemia ip in BDF1 mice, survival T/C. Put plainly: NCI In Vivo Anticancer Drug Screen. Data for tumor model L1210 Leukemia (intraperitoneal) in B6D2F1 (BDF1) mice. The following applies: endpoint: mean survival time, higher = longer survival. The method, boiled down: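 In this screen, tumor-bearing mice given compound are compared to those given vehicle, and their survival values are reported as a treated-to-control quotient.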

Where [1] appears, read: dose: 100.0 mg/kg/injection, schedule: Q04DX003 (ip), vehicle: saline with Tween-80.
The mark [2] stands for this setting: dose: 200.0 mg/kg/injection, schedule: Q04DX003 (ip), vehicle: saline with Tween-80.
[3] abbreviates: dose: 400.0 mg/kg/injection, schedule: Q04DX003 (ip), vehicle: saline with Tween-80.
Setting [4] is: dose: 100.0 mg/kg/injection, schedule: Q01DX001 (ip), vehicle: saline.
The mark [5] stands for this setting: dose: 100.0 mg/kg/injection, schedule: Q04DX003 (ip), vehicle: Klucel (hydroxypropylcellulose) (HPC).
The mark [6] stands for this setting: dose: 200.0 mg/kg/injection, schedule: Q04DX003 (ip), vehicle: Klucel (hydroxypropylcellulose) (HPC).
[7] abbreviates: dose: 400.0 mg/kg/injection, schedule: Q04DX003 (ip), vehicle: Klucel (hydroxypropylcellulose) (HPC).
The mark [8] stands for this setting: dose: 200.0 mg/kg/injection, schedule: Q01DX001 (ip), vehicle: saline.
[9] abbreviates: dose: 400.0 mg/kg/injection, schedule: Q01DX001 (ip), vehicle: saline.
Where [10] appears, read: dose: 100.0 mg/kg/injection, schedule: Q01DX009 (ip), vehicle: Klucel (hydroxypropylcellulose) (HPC).
Where [11] appears, read: dose: 200.0 mg/kg/injection, schedule: Q01DX009 (ip), vehicle: Klucel (hydroxypropylcellulose) (HPC).
The mark [12] stands for this setting: dose: 400.0 mg/kg/injection, schedule: Q01DX009 (ip), vehicle: Klucel (hydroxypropylcellulose) (HPC).
[13] abbreviates: dose: 100.0 mg/kg/injection, schedule: Q04DX002 (ip), vehicle: Klucel (hydroxypropylcellulose) (HPC).
The mark [14] stands for this setting: dose: 200.0 mg/kg/injection, schedule: Q04DX002 (ip), vehicle: Klucel (hydroxypropylcellulose) (HPC).
Setting [15] is: dose: 400.0 mg/kg/injection, schedule: Q04DX002 (ip), vehicle: Klucel (hydroxypropylcellulose) (HPC).
The mark [16] stands for this setting: dose: 100.0 mg/kg/injection, schedule: Q04DX002 (ip), vehicle: saline.
The mark [17] stands for this setting: dose: 200.0 mg/kg/injection, schedule: Q04DX002 (ip), vehicle: saline.
Setting [18] is: dose: 400.0 mg/kg/injection, schedule: Q04DX002 (ip), vehicle: saline.

Inconclusive results and toxic doses are left out.

`O=C(NCCNC(=O)c1cccc([N+](=O)[O-])c1O)c1cccc([N+](=O)[O-])c1O`: the T/C was 96 % of control under setting [1], 95 % of control under setting [2] and 90 % of control under setting [3].
For `O=c1[nH]cnc2[nH]ncc12`, the T/C (dose: 50.0 mg/kg/injection, schedule: Q01DX001 (ip), vehicle: saline with Tween-80) was 95 % of control; the T/C (dose: 69.0 mg/kg/injection, schedule: Q01DX015 (ip), vehicle: carboxymethylcellulose (CMC)) is 94 % of control; the T/C (dose: 100.0 mg/kg/injection, schedule: Q01DX001 (ip), vehicle: carboxymethylcellulose (CMC)) is 106 % of control; the T/C (dose: 100.0 mg/kg/injection, schedule: Q01DX001 (ip), vehicle: saline with Tween-80) was 105 % of control; the T/C under setting [4] is 101 % of control; the T/C (dose: 104.0 mg/kg/injection, schedule: Q01DX015 (ip), vehicle: carboxymethylcellulose (CMC)) was 95 % of control. Besides, the T/C reads like this: (dose: 156.0 mg/kg/injection, schedule: Q01DX015 (ip), vehicle: carboxymethylcellulose (CMC)) 96 % of control; (dose: 200.0 mg/kg/injection, schedule: Q01DX001 (ip), vehicle: carboxymethylcellulose (CMC)) 102 % of control; (dose: 234.0 mg/kg/injection, schedule: Q01DX015 (ip), vehicle: carboxymethylcellulose (CMC)) 94 % of control; (dose: 351.0 mg/kg/injection, schedule: Q01DX015 (ip), vehicle: carboxymethylcellulose (CMC)) 95 % of control.
For the compound `CC1=C(C)C(C)(Cl)C1(C)Cl` (stereo unspecified), the T/C reads like this: (dose: 75.0 mg/kg/injection, schedule: Q01DX001 (ip), vehicle: acetone) 108 % of control; (dose: 150.0 mg/kg/injection, schedule: Q01DX001 (ip), vehicle: acetone) 95 % of control.
Take `O=C(COc1cccc(Cl)c1)NCc1ccc(NC(=O)CBr)cc1`: the T/C was 94 % of control (dose: 25.0 mg/kg/injection, schedule: Q01DX001 (ip), vehicle: gum acacia); 96 % of control (dose: 50.0 mg/kg/injection, schedule: Q01DX001 (ip), vehicle: gum acacia); 98 % of control (dose: 100.0 mg/kg/injection, schedule: Q01DX001 (ip), vehicle: gum acacia); 90 % of control (dose: 200.0 mg/kg/injection, schedule: Q01DX001 (ip), vehicle: gum acacia); 90 % of control (dose: 400.0 mg/kg/injection, schedule: Q01DX001 (ip), vehicle: gum acacia).
For `COC(=O)CCc1c(C)[nH]c(C(=O)OC(C)(C)C)c1C`, the T/C (dose: 100.0 mg/kg/injection, schedule: Q01DX001 (ip), vehicle: Klucel (hydroxypropylcellulose) (HPC)) is 97 % of control; the T/C under setting [5] is 93 % of control; the T/C (dose: 200.0 mg/kg/injection, schedule: Q01DX001 (ip), vehicle: Klucel (hydroxypropylcellulose) (HPC)) is 101 % of control; the T/C under setting [6] is 98 % of control; the T/C (dose: 400.0 mg/kg/injection, schedule: Q01DX001 (ip), vehicle: Klucel (hydroxypropylcellulose) (HPC)) is 93 % of control; the T/C under setting [7] was 95 % of control.
Turning to `COc1cc(/C=C\C(=O)O)cc(Cl)c1O`, the T/C runs as follows: (dose: 50.0 mg/kg/injection, schedule: Q01DX009 (ip), vehicle: saline + alcohol) 94 % of control; (dose: 100.0 mg/kg/injection, schedule: Q01DX009 (ip), vehicle: saline + alcohol) 101 % of control; (dose: 200.0 mg/kg/injection, schedule: Q01DX009 (ip), vehicle: saline + alcohol) 105 % of control.
Take `O=c1ccn(C2SC(CO)C(O)C2O)c(=O)[nH]1` (stereo unspecified): the T/C was 108 % of control (dose: 50.0 mg/kg/injection, schedule: Q01DX001 (ip), vehicle: saline); 100 % of control under setting [4]; 88 % of control under setting [8]; 108 % of control under setting [9].
With `COc1ccc(P(=NS(=O)(=O)c2ccc(C)cc2)(c2ccc(OC)cc2)c2ccc(OC)cc2)cc1`, the T/C was 91 % of control under setting [5] and 96 % of control under setting [6].
For `NC(=O)C1(C(N)=O)CCC1`, the T/C by setting is: under setting [10], 105 % of control; under setting [11], 105 % of control; under setting [12], 106 % of control.
Take `CCC1(O)CC2CN(CCc3c([nH]c4ccccc34)C(C(=O)OC)(c3cc4c(cc3OC)N(C)C3C(O)(C(=O)NCCSSCCNC(=O)C5(O)C(O)C6(CC)C=CCN7CCC8(c9cc(C%10(C(=O)OC)CC%11CN(CCc%12c%10[nH]c%10ccccc%12%10)CC(O)(CC)C%11)c(OC)cc9N(C)C58)C76)C(O)C5(CC)C=CCN6CCC43C65)C2)C1` (stereo unspecified): the T/C reads like this: (dose: 1800.0 micrograms/kg/injection, schedule: Q04DX003 (ip), vehicle: saline) 154 % of control; (dose: 3000.0 micrograms/kg/injection, schedule: Q04DX003 (ip), vehicle: saline) 119 % of control.
For `Cc1ccc([N+](=O)[O-])cc1NC(=O)N(CCO)C1CCCCC1`, the T/C is, setting by setting: under setting [13], 101 % of control; under setting [14], 100 % of control; under setting [15], 104 % of control.
Turning to `CCNCC`, the T/C runs as follows: (dose: 100.0 mg/kg/injection, schedule: Q04DX003 (ip), vehicle: saline) 93 % of control; (dose: 200.0 mg/kg/injection, schedule: Q04DX003 (ip), vehicle: saline) 101 % of control; (dose: 400.0 mg/kg/injection, schedule: Q04DX003 (ip), vehicle: saline) 101 % of control.
With `CC(C)OC(=S)SCC(=O)c1ccc(C(F)(F)F)cc1`, the T/C was 96 % of control under setting [13], 92 % of control under setting [14] and 92 % of control under setting [15].
Take `Oc1ccc(O)c2c1C1c3ccccc3C2c2ccccc21`: the T/C was 86 % of control under setting [4] and 108 % of control under setting [8].
As to `COC(=O)c1cc(/C=C/c2ccccc2)ccc1[N+](=O)[O-]`, the T/C is 90 % of control (dose: 50.0 mg/kg/injection, schedule: Q04DX003 (ip), vehicle: alcohol); 101 % of control (dose: 100.0 mg/kg/injection, schedule: Q04DX003 (ip), vehicle: alcohol); 104 % of control (dose: 200.0 mg/kg/injection, schedule: Q04DX003 (ip), vehicle: alcohol).
Consider `O=C(O)c1cccc2cccc(C(=O)c3cccs3)c12`, for which the T/C under setting [1] was 91 % of control, the T/C under setting [2] is 98 % of control and the T/C under setting [3] was 91 % of control.
For the compound `CC(=O)Nc1ccc(S(=O)(=O)SC(F)(F)F)cc1`, the T/C runs as follows: (dose: 5.0 mg/kg/injection, schedule: Q01DX001 (ip), vehicle: saline) 97 % of control; (dose: 10.0 mg/kg/injection, schedule: Q01DX001 (ip), vehicle: saline) 98 % of control; (dose: 20.0 mg/kg/injection, schedule: Q01DX001 (ip), vehicle: saline) 101 % of control.
For `Cc1cc(C)c(C(=O)c2ccc([N+](=O)[O-])cc2)c(C)c1`, the T/C by setting is: under setting [10], 98 % of control; under setting [5], 105 % of control; under setting [11], 86 % of control; under setting [6], 95 % of control; under setting [12], 86 % of control; under setting [7], 94 % of control.
On to `CN(C)S(=O)(=O)c1ccc(NC(=O)OC2CCCCC2)cc1`, for which the T/C was 96 % of control under setting [4], 91 % of control under setting [8] and 96 % of control under setting [9].
As for `C=C1CC(O)C2C(C)C(=O)OC2C2C1CC1OC12C` (stereo unspecified), the T/C by setting is: under setting [16], 92 % of control; under setting [17], 95 % of control; under setting [18], 92 % of control.
`CC(C)OCCSP(SCCOC(C)C)SCCOC(C)C`: the T/C was 96 % of control (dose: 25.0 mg/kg/injection, schedule: Q04DX003 (ip), vehicle: saline with Tween-80); 107 % of control (dose: 50.0 mg/kg/injection, schedule: Q04DX003 (ip), vehicle: saline with Tween-80); 96 % of control under setting [1].
As to `O=C(O)C12C3C4CC5C3C1C5C42` (stereo unspecified), the T/C is, setting by setting: under setting [1], 98 % of control; under setting [2], 106 % of control; under setting [3], 97 % of control.
In the case of `CC1CCCCC1C(=O)N1CCCCC1` (stereo unspecified), the T/C under setting [16] was 117 % of control, the T/C under setting [17] was 96 % of control and the T/C under setting [18] was 101 % of control.

The values are drawn from PubChem BioAssay AID248 (DTP/NCI, 2004).
